# pKi: −log10 of the molar value.
# Columns and labels:
# [1] = target: BACE1 (Homo sapiens (Human), UniProt P56817); experiment: BACE1 binding assay (SPA-based radioligand binding); settings: pH 4.5, 10 nM radioligand, Ki calculated from IC50
# Experimental: The binding assay was performed as SPA-based assay using a biotinylated form of human BACE1 recombinantly expressed and subsequently purified from Freestyle HEK293 cells. The binding assay was run in a 50 mM sodium acetate buffer, pH 4.5 containing 50 mM NaCl and 0.03% Tween-20 in white clear bottom 384 plates (Corning #3653). 10 nM (final concentration) radioligand ([^3H]—N-((1S,2R)-1-benzyl-3-cyclopropylamino-2-hydroxy-propyl)-5-(methanesulfonyl-methyl-amino)-N—((R)-1-phenyl-ethyl)-isophthalamide) (TRQ11569 purchased from GE Healthcare) was mixed with test compound at a given concentration, 6 nM (final concentration) human BACE1 and 25 μg Streptavidin coated PVT core SPA beads (RPNQ0007, GE Healthcare Life Sciences) in a total volume of 40 μl. Several concentrations of each test compound were tested in the assay for IC50 determination. The plates were incubated for one hour at room temperature and counted in a Wallac Trilux counter. Total and non-specific binding were determined using buffer and 1 μM (final concentration) of the high affinity BACE1 reference inhibitor (S)-6-[3-chloro-5-(5-prop-1-ynyl-pyridin-3-yl)-thiophen-2-yl]-2-imino-3,6-dimethyl-tetrahydro-pyrimidin-4-one, respectively. For each test compound, a IC50 value (the concentration mediating 50% inhibition of the specific binding of the radioligand) was determined from concentration-response curve and used to calculate the Ki from the equation Ki=IC50/(1+L/Kd), where L and Kd are the final concentration of the radioligand used in the assay and the dissociation constant of the radioligand, respectively. The Kd of the radioligand was determined from saturation binding experiments.
# [2] = system: Aβ40; experiment: Assessment of Aβ levels in rat brain and plasma following BACE1 inhibition (Aβ40 ELISA); assay type: in vivo; settings: 180 minutes, vs vehicle
# Experimental: Assessment of Aβ Levels in Rat Brain and Plasma Following BACE1 Inhibition. Animals.
# All rat care and experimental procedures were approved by Lundbeck Veterinary Staff, according to Danish legislature. The rats were maintained in a barrier facility with a 12/12-h light/dark cycle and ad libitum food and water access.
# Young adult Male Sprague Dawley rats of approximately 250 g weight were purchased from Charles River and received 0-30 mg/kg of vehicle (10% HP betaCD+1M MeSO4, pH 2.5) or test compounds (dissolved in vehicle) only by oral gavage (p.o). The compounds are dosed at a volume of 5 ml/kg. Cohorts of 5-10 animals were established for each treatment condition.
# At T=180 minutes after initial dosing the animals were stunned and decapitated with a guillotine. Trunk-blood was sampled in EDTA coated tubes after decapitation of the animal. The blood was centrifuged at 2200G at 4° C. for 15 minutes and the plasma was collected and frozen at −80° C. The blood was aliquoted for Aβ ELISA and DMPK analysis. Immediately following sacrifice, the brain was extracted and split into 2 halves. The right hemibrains were snap frozen on dry ice and stored at −80° C. The left half was dissected; with the front forebrain taken for Aβ ELISA and the remainder used for DMPK analysis. These samples were also snap frozen on dry ice and stored at −80° C. until use for analysis.
# The cortex samples were thawed slightly on wet ice before they were homogenized with a small volume dispersing instrument (T10 basic ULTRA-TURRAX®) which was set at speed 5 for approximately 5-7 sec. The tissue was processed in a 10 times volume of the weight, for example 100 mg of tissue was homogenized in 1000 μL of Homogenization buffer. Homogenization buffer: 50 ml Milli Q water+50 nM NaCl+0.2% Diethylamin (DEA)+1 tablet of Complete Protease inhibitor cocktail+1 nM 4-(2-aminoethyl) benzenesulfonyl fluoride hydrochloride irreversible serine protease inhibitor (AEBSF).
# After homogenization 450 μL aliquots of the samples are collected into a 1.5 ml Eppendorf tube and placed on wet ice, 0.5% NP-40 (50 ul) was added to all samples and then they were incubated on ice for 30 min. After which all samples were sonicated using an Ultrasonic homogenizer with 20 kHz homogeneous sound (SONOPLUS HD2070, Bandelin Electronic) 10 pulse set at 12-13% power to extract all the Aβ species. The samples were then centrifuged (Ole Dich 157 MPRF Micro centrifuge) at 20000G for 20 minutes at 4° C. After centrifugation 285 μL of the supernatant was pipetted into 600 μL microtubes tubes and neutralized with 15 μL of 1M Tris-HCL buffer.
# WAKO 294-62501 Human/Rat Abeta amyloid (40) kit was used for all ELISA analyses. 30 μL plasma samples or 30 μL of the cortex supernatants generated as described above were placed in 600 μL microtubes tubes on wet ice. To this 30 μL of 8M Urea (AppliChem A1049, 9025) are added to generate a 2-fold dilution. Both plasma and cortex supernatants are incubated on ice for 30 min. Standard rows were prepared from the standard peptide stock provided in the kit and standard diluent containing 1.6M Urea (200 μL 8M Urea+800 μL of standard diluent) and 0.8M Urea (400 μL 8M Urea+3600 μL Standard diluent). A serial 2-fold dilution of A340 from […] to 0 μmol/L was prepared for the assay.
# After incubation with urea, all samples were further diluted by addition of 5 times standard diluent from the Kit. This was done by adding 240 μL Standard Diluent to 60 μL sample/urea mixture, which was then mixed well. 100 μL of each diluted sample was pipetted into designated wells of the ELISA plate in duplicates. The plate was then covered and incubated overnight at 4° C. The following day, the ELISA kit was brought to room temperature before use. The incubated plate was washed 5 times with the 20× washing solution diluted in Milli Q water. 100 μL HRP-conjugate was applied to each well, and the plate was covered and incubates at 4° C. for 1 hr. The wash was repeated again for 5 times. […]
# Sequence of BACE1 (P56817 46-501): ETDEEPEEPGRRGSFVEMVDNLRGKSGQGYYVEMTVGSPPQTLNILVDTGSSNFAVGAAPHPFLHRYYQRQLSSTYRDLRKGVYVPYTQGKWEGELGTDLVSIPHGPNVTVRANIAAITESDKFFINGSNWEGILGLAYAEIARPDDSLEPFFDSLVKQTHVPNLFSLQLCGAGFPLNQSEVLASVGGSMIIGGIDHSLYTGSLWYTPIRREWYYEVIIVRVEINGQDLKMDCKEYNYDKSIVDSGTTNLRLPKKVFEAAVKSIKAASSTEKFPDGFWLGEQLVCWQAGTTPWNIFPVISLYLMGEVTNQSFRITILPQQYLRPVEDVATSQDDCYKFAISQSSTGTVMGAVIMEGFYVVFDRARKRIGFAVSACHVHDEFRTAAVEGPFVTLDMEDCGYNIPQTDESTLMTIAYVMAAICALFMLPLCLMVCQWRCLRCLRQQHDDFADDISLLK
pKi [1],SMILES,"Aβ40 reduction ([2]; Brain Rat, 10 mg/kg p.o.) [%]","Aβ40 reduction ([2]; Brain Rat, 30 mg/kg p.o.) [%]","Aβ40 reduction ([2]; Plasma Rat, 10 mg/kg p.o.) [%]","Aβ40 reduction ([2]; Plasma Rat, 30 mg/kg p.o.) [%]","Aβ40 reduction ([2]; Brain Rat, 3 mg/kg p.o.) [%]","Aβ40 reduction ([2]; Plasma Rat, 3 mg/kg p.o.) [%]"
7.64,"COc1ccc(C(=O)Nc2ccc(F)c([C@@]3(C)N=C(N)[C@@](C)(F)C[C@@H]3F)c2)nc1 [Compound 3, N-(3-((2R,3S,5S)-6-amino-3,5-difluoro-2,5-dimethyl-2,3,4,5-tetrahydropyridin-2-yl)-4-fluorophenyl)-5-methoxypicolinamide]",35,61,24,53,,
7.70,"[2H]C([2H])([2H])Oc1ccc(C(=O)Nc2ccc(F)c([C@@]3(C)N=C(N)[C@@](C)(F)C[C@@H]3F)c2)nc1 [Compound 19, N-(3-((2R,3S,5S)-6-amino-3,5-difluoro-2,5-dimethyl-2,3,4,5-tetrahydropyridin-2-yl)-4-fluorophenyl)-5-(methoxy-d3)picolinamide]",56,66,49,53,,
7.68,"[2H]C([2H])([2H])Oc1cnc(C(=O)Nc2ccc(F)c([C@@]3(C)N=C(N)[C@@](C)(F)C[C@@H]3F)c2)cn1 [Compound 20, N-(3-((2R,3S,5S)-6-amino-3,5-difluoro-2,5-dimethyl-2,3,4,5-tetrahydropyridin-2-yl)-4-fluorophenyl)-5-(methoxy-d3)pyrazine-2-carboxamide]",,,,,52,64

# — US10059669B2, “2-amino-3,5-difluoro-3,6-dimethyl-6-phenyl-3,4,5,6-tetrahydropyridines as BACE1 inhibitors for treating alzheimer's disease” (H. Lundbeck A/S, priority 2014, dated 2018)
